Assay in all cases: relative viability (nuclei count vs DMSO), 5 days (fraction); higher = more cells survive
Compound in experiment [1]: CC(C)C[C@@H](C(=O)N[C@H](C(=O)OC1CCCC1)c1ccccc1)[C@H](O)C(=O)NO [Tosedostat] + CC1(C)CCC(c2ccc(Cl)cc2)=C(CN2CCN(c3ccc(C(=O)NS(=O)(=O)c4ccc(N[C@H](CCN5CCOCC5)CSc5ccccc5)c(S(=O)(=O)C(F)(F)F)c4)cc3)CC2)C1 [Navitoclax] (partner 0.5 µM)
In short, it runs like this:
(§1)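 Relative viability divides the nuclei count in treated wells by that in vehicle wells. Lung cancer cell lines were seeded in 1536-well plates, dosed by pin tool the next day, and fixed and stained after 5 days in one step with final 0.05% Triton X-100, 1% formaldehyde and 1 ug/ml Hoechst. Dosing was a single drug or a fixed anchor-drug dose plus five library-drug doses (not always all listed) in √10 steps, and values are medians of duplicate plates imaged at 4×.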

Compound in experiment [2]: CC(C)C[C@@H](C(=O)N[C@H](C(=O)OC1CCCC1)c1ccccc1)[C@H](O)C(=O)NO [Tosedostat] + CC(=O)Nc1cccc(-n2c(=O)n(C3CC3)c(=O)c3c(Nc4ccc(I)cc4F)n(C)c(=O)c(C)c32)c1 [Trametinib] (partner 0.02 µM)
In short, it runs like this: as §1

Compound in experiment [3]: CC(C)C[C@@H](C(=O)N[C@H](C(=O)OC1CCCC1)c1ccccc1)[C@H](O)C(=O)NO [Tosedostat] + CC(=O)c1c(C)c2cnc(Nc3ccc(N4CCNCC4)cn3)nc2n(C2CCCC2)c1=O [Palbociclib] (partner 0.5 µM)
In short, it runs like this:
as §1

Compound in experiment [4]: CC(C)C[C@@H](C(=O)N[C@H](C(=O)OC1CCCC1)c1ccccc1)[C@H](O)C(=O)NO [Tosedostat] + C[C@]1(O)C[C@@H](c2nc(-c3ccc4ccc(-c5ccccc5)nc4c3)c3c(N)nccn32)C1 [Linsitinib] (partner 1 µM)
In short, it runs like this:
as §1

On to PC-3 [JPC-3], for which the relative viability in experiment [1] (first compound 0.02 µM) turned out to be 0.85; in experiment [1] (first compound 0.06325 µM) it was 0.837; in experiment [1] (first compound 0.2 µM) it was 0.825; in experiment [1] (first compound 0.6325 µM), 0.678; in experiment [1] (first compound 2 µM) it was 0.638; in experiment [2] (first compound 0.02 µM), 0.752. Moreover, the relative viability in experiment [2] (first compound 0.06325 µM) was 0.629; in experiment [2] (first compound 0.2 µM), 0.733; in experiment [2] (first compound 0.6325 µM) it was 0.614; in experiment [2] (first compound 2 µM) it was 0.514; in experiment [3] (first compound 0.02 µM), 0.538; in experiment [3] (first compound 0.06325 µM), 0.547. Also, the relative viability in experiment [3] (first compound 0.2 µM) stood at 0.554; in experiment [3] (first compound 0.6325 µM), 0.493; in experiment [3] (first compound 2 µM), 0.555; in experiment [4] (first compound 0.02 µM) it was 1.03; in experiment [4] (first compound 0.06325 µM) it was 1; in experiment [4] (first compound 0.2 µM), 1. Moreover, the values for the relative viability in experiment [4] (first compound 0.6325 µM) and in experiment [4] (first compound 2 µM) were 0.946 and 0.653, respectively.
PC-14: the relative viability came to 1.03 in experiment [1] (first compound 0.02 µM); 0.999 in experiment [1] (first compound 0.06325 µM); 1.04 in experiment [1] (first compound 0.2 µM); 0.994 in experiment [1] (first compound 0.6325 µM); 1.06 in experiment [1] (first compound 2 µM); 0.856 in experiment [2] (first compound 0.02 µM). In addition, the relative viability in experiment [2] (first compound 0.06325 µM) is 0.758; in experiment [2] (first compound 0.2 µM), 0.781; in experiment [2] (first compound 0.6325 µM), 0.67; in experiment [2] (first compound 2 µM), 0.531; in experiment [3] (first compound 0.02 µM), 0.583; in experiment [3] (first compound 0.06325 µM), 0.469. The relative viability in experiment [3] (first compound 0.2 µM) was found to be 0.502; in experiment [3] (first compound 0.6325 µM) it was 0.447; in experiment [3] (first compound 2 µM) it was 0.444; in experiment [4] (first compound 0.02 µM) it was 0.97; in experiment [4] (first compound 0.06325 µM) it was 0.973; in experiment [4] (first compound 0.2 µM), 0.982. The relative viability was found to be 0.915 in experiment [4] (first compound 0.6325 µM) and 0.918 in experiment [4] (first compound 2 µM).
In the case of RERF-LC-KJ, the relative viability in experiment [1] (first compound 0.02 µM) is 1.03; in experiment [1] (first compound 0.06325 µM), 0.953; in experiment [1] (first compound 0.2 µM), 0.948; in experiment [1] (first compound 0.6325 µM), 0.517; in experiment [1] (first compound 2 µM) it was 0.614; in experiment [2] (first compound 0.02 µM) it was 0.878. Also, the relative viability was 0.784 in experiment [2] (first compound 0.06325 µM); 0.81 in experiment [2] (first compound 0.2 µM); 0.782 in experiment [2] (first compound 0.6325 µM); 0.686 in experiment [2] (first compound 2 µM); 1.23 in experiment [3] (first compound 0.02 µM); 1.04 in experiment [3] (first compound 0.06325 µM). Also, the relative viability came out at 0.845 in experiment [3] (first compound 0.2 µM); 0.755 in experiment [3] (first compound 0.6325 µM); 0.859 in experiment [3] (first compound 2 µM); 0.933 in experiment [4] (first compound 0.02 µM); 0.875 in experiment [4] (first compound 0.06325 µM); 0.854 in experiment [4] (first compound 0.2 µM). For the same cell line, the relative viability was found to be 0.839 in experiment [4] (first compound 0.6325 µM) and 0.795 in experiment [4] (first compound 2 µM).
Take SK-LU-1: the relative viability in experiment [1] (first compound 0.02 µM) was 0.889; in experiment [1] (first compound 0.06325 µM), 0.854; in experiment [1] (first compound 0.2 µM) it was 0.939; in experiment [1] (first compound 0.6325 µM), 0.608; in experiment [1] (first compound 2 µM), 0.771; in experiment [2] (first compound 0.02 µM), 0.648. The relative viability in experiment [2] (first compound 0.06325 µM) is 0.529; in experiment [2] (first compound 0.2 µM), 0.597; in experiment [2] (first compound 0.6325 µM), 0.447; in experiment [2] (first compound 2 µM) it was 0.511; in experiment [3] (first compound 0.02 µM) it was 0.429; in experiment [3] (first compound 0.06325 µM) it was 0.401. Further, the relative viability in experiment [3] (first compound 0.2 µM) was 0.467; in experiment [3] (first compound 0.6325 µM), 0.341; in experiment [3] (first compound 2 µM) it was 0.4; in experiment [4] (first compound 0.02 µM), 1.1; in experiment [4] (first compound 0.06325 µM), 1.07; in experiment [4] (first compound 0.2 µM), 0.9. Moreover, the relative viability in experiment [4] (first compound 0.6325 µM) stood at 0.855; in experiment [4] (first compound 2 µM) it was 0.906.
Take SK-MES-1: the relative viability in experiment [1] (first compound 0.02 µM) stood at 1.23; in experiment [1] (first compound 0.06325 µM), 1.29; in experiment [1] (first compound 0.2 µM), 1.29; in experiment [1] (first compound 0.6325 µM) it was 1.11; in experiment [1] (first compound 2 µM), 1; in experiment [2] (first compound 0.02 µM), 0.556. The relative viability in experiment [2] (first compound 0.06325 µM) is 0.536; in experiment [2] (first compound 0.2 µM) it was 0.625; in experiment [2] (first compound 0.6325 µM) it was 0.776; in experiment [2] (first compound 2 µM), 0.782; in experiment [3] (first compound 0.02 µM), 0.305; in experiment [3] (first compound 0.06325 µM), 0.3. Also, the relative viability in experiment [3] (first compound 0.2 µM) came out at 0.353; in experiment [3] (first compound 0.6325 µM), 0.355; in experiment [3] (first compound 2 µM), 0.302; in experiment [4] (first compound 0.02 µM) it was 1.2; in experiment [4] (first compound 0.06325 µM) it was 1.05; in experiment [4] (first compound 0.2 µM), 1.06. Also, the relative viability was 1.01 in experiment [4] (first compound 0.6325 µM) and 0.983 in experiment [4] (first compound 2 µM).
Regarding SW 1573, the relative viability in experiment [1] (first compound 0.02 µM) was 1.06; in experiment [1] (first compound 0.06325 µM), 1.05; in experiment [1] (first compound 0.2 µM) it was 1.06; in experiment [1] (first compound 0.6325 µM), 0.796; in experiment [1] (first compound 2 µM), 0.959; in experiment [2] (first compound 0.02 µM), 0.59. Besides, the relative viability worked out at 0.537 in experiment [2] (first compound 0.06325 µM); 0.553 in experiment [2] (first compound 0.2 µM); 0.472 in experiment [2] (first compound 0.6325 µM); 0.505 in experiment [2] (first compound 2 µM); 0.427 in experiment [3] (first compound 0.02 µM); 0.394 in experiment [3] (first compound 0.06325 µM). Moreover, the relative viability in experiment [3] (first compound 0.2 µM) stood at 0.369; in experiment [3] (first compound 0.6325 µM), 0.308; in experiment [3] (first compound 2 µM) it was 0.402; in experiment [4] (first compound 0.02 µM), 0.828; in experiment [4] (first compound 0.06325 µM), 0.973; in experiment [4] (first compound 0.2 µM), 0.826. For the same cell line, the relative viability in experiment [4] (first compound 0.6325 µM) was 0.841; in experiment [4] (first compound 2 µM), 0.551.
On to UMC-11, for which the relative viability in experiment [1] (first compound 0.02 µM) was 0.343; in experiment [1] (first compound 0.06325 µM) it was 0.309; in experiment [1] (first compound 0.2 µM) it was 0.323; in experiment [1] (first compound 0.6325 µM) it was 0.322; in experiment [1] (first compound 2 µM) it was 0.287; in experiment [2] (first compound 0.02 µM), 0.863. In addition, the relative viability in experiment [2] (first compound 0.06325 µM) is 0.681; in experiment [2] (first compound 0.2 µM), 0.663; in experiment [2] (first compound 0.6325 µM), 0.855; in experiment [2] (first compound 2 µM), 0.664; in experiment [3] (first compound 0.02 µM), 0.339; in experiment [3] (first compound 0.06325 µM), 0.341. In addition, the relative viability was 0.299 in experiment [3] (first compound 0.2 µM); 0.362 in experiment [3] (first compound 0.6325 µM); 0.338 in experiment [3] (first compound 2 µM); 0.995 in experiment [4] (first compound 0.02 µM); 1.08 in experiment [4] (first compound 0.06325 µM); 0.951 in experiment [4] (first compound 0.2 µM). Besides, the results for the relative viability in experiment [4] (first compound 0.6325 µM) and in experiment [4] (first compound 2 µM) were 0.898 and 0.976, respectively.

The values are drawn from the supplement of paper PMC10307832.
